From patent US11753403B2, “EIF4E inhibitors and uses thereof” (PIC Therapeutics, Inc., priority 2020, dated 2023)

Target: Human eIF4E (aa 28-217) / biotin labeled 4G2 peptide (Homo sapiens (Human), UniProt P06730)
Assay: Human eIF4E/4G2 binding assay (TR-FRET)
Details: Human eIF4E/4G2 TR-FRET binding assay; head says IC50, legend says EC50
Experimental: Example 5. Compound Testing in Human eIF4E/4G2 Binding Assay
Human eIF4E (aa 28-217) with a C-terminal His-tag was expressed in E. coli in inclusion bodies. The protein was solubilized with 8 M urea and purified under denaturing conditions using nickel-charged HisTrap HP columns (GE Healthcare). The purified protein was then refolded by diluting in 20 mM Hepes pH 7.0, 0.5 M NaCl, 1 mM DTT, 1 mM EDTA, 0.5 M arginine plus 6 M urea, and then dialyzing overnight into the same buffer without the urea. The protein was further dialyzed into 20 mM Hepes, pH 6.5, 50 mM NaCl, 1 mM EDTA, 1 mM DTT, and concentrated using Hitrap SP sepharose FF columns (GE Healthcare). The concentrated protein was dialyzed into 20 mM Hepes, pH 7.0, 0.5M NaCl, 5 mM DTT and 10% glycerol, and stored at −80° C. until use.
Test compounds (3.43 mM stock in DMSO) were diluted 2-fold in series in DMSO (10 concentration points). Compound solutions (1.2 μl/well) were added into black 384-well polypropylene microplates (Matrix, Thermal Scientific). Twenty-two microliters per well of Assay Buffer (50 mM NaPi, pH 6.5, 50 mM KCl, 1 mM DTT and 0.5 mg/ml gamma globulin) and eight microliters per well of 82.5 nM purified eIF4E in Assay Buffer were added. The samples were incubated at room temperature (20-23° C.) for 4 hours. Biotin labeled 4G2 peptide (Ac-Lys-Gln-Tyr-Asp-Arg-Glu-Phe-Leu-Leu-Asp-Phe-Gln-Phe-Met-Pro-Lys(Aha-Bio)-NH2, 1.75 μM stock in DMSO) was diluted to 0.14 μM in Assay Buffer (without DTT) and 5 μl/well was added. The samples were incubated at room temperature for 20 min. Five microliters per well of 6.4 nM Eu-streptavidin (Eu-SA, Perkin Elmer) and 80 nM Allophycocyanin (APC)-anti His antibody (Columbia Biosciences) in Assay Buffer (without DTT) were then added and the samples were incubated at room temperature for 20 min.
Assay signals were monitored by reading excitation at 340 nm and emission fluorescence at 615 nm and 665 nm on an Envision reader (Perkin Elmer). Normalized TR-FRET (time-resolved fluorescence resonance energy transfer) assay signal (Rn) was calculated by the formula: Rn=[(A−Ba−C×D)/(D−Bd)]×(Dc−Bd) Where A is the fluorescence intensity of the sample at 665 nm, • D is the fluorescence intensity of the sample at 615 nm, • Ba and Bd are plate backgrounds at 665 nm and 615 nm, respectively, • Dc is the fluorescence intensity of 0.78 nM Eu-SA in the assay buffer at 615 nm The cross-talk factor (C) is determined by the following formula: C=(Ac−Ba)/(Dc−Bd) Where Ac is the fluorescence intensity of 0.78 nM Eu-SA in the assay buffer at 665 nm.
IC50 values were calculated using xLFit program (IDBS). Table 2 below lists EC50 of some compounds, wherein A represents EC50≤1 uM; B represents 1 uM<EC50≤10 uM; and C represents EC50>10 uM.

Human eIF4E (aa 28-217) / biotin labeled 4G2 peptide, sequence (P06730 28-217): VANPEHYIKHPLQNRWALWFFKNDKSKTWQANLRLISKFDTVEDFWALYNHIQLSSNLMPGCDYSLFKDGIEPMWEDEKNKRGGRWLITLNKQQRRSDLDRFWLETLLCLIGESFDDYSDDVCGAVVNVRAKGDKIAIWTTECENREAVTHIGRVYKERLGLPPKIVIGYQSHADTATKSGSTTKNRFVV

Row | Compound | IC50 [µM]
1 | CSCc1sc(N(CCC(=O)O)Cc2ccccc2)nc1-c1ccc(Cl)c(Cl)c1 [I-121] | 1 to 10
2 | Cc1ccc(-c2nc(N(CCC(=O)O)Cc3ccccc3)sc2C(C)C)cc1C [I-75] | 1 to 10
3 | O=C(O)C(CNc1nc(-c2ccc(Cl)c(Cl)c2)c(C2CC2)s1)Cc1cccc2[nH]ccc12 (stereo not shown) [I-16] | 1 to 10
4 | CC(C)c1sc(NCC(Cc2ccccc2)C(=O)O)nc1-c1ccc(Cl)c(Cl)c1 (stereo not shown) [I-1, 2-benzyl-3-(4-(3,4-dichlorophenyl)-5-isopropylthiazol-2-ylamino)propanoic acid] | ≤ 1
5 | O=C(O)c1sc(C2CCCC2)cc1Nc1nc(Cc2ccccc2)c(-c2ccccc2)s1 [I-310] | ≤ 1
6 | COc1cccc(-c2nc(NCC(Cc3cccc4[nH]ccc34)C(=O)O)sc2C(C)C)c1 (stereo not shown) [I-35] | 1 to 10
7 | CC(C)Cc1sc(N(CCS(=O)(=O)NC(=O)CCN)Cc2ccccc2)nc1-c1ccc(Cl)c(Cl)c1 [I-188] | > 10
8 | CC(C)c1sc(N(CCC(=O)O)Cc2ccccc2)nc1-c1ccc(F)c(Cl)c1 [I-78] | 1 to 10
9 | CC(C)Cc1sc(N(CCC(=O)O)Cc2ccccc2)nc1-c1ccc(S(C)(=O)=O)cc1 [I-128, 3-(benzyl(5-isobutyl-4-(4-(methylsulfonyl)phenyl)thiazol-2-yl)amino)propanoic acid] | > 10
10 | CC(C)c1sc(NCC(Cc2cccc3[nH]ccc23)C(=O)O)nc1-c1ccc(Cl)c(Cl)c1 (stereo not shown) [I-8] | 1 to 10
11 | Cn1nnnc1-c1sc(Nc2ccsc2C(=O)O)nc1-c1ccc(Cl)c(Cl)c1 [I-269, 3-(4-(3,4-dichlorophenyl)-5-(1-methyl-1H-tetrazol-5-yl)thiazol-2-ylamino)thiophene-2-carboxylic acid] | 1 to 10
12 | O=C(O)C(CNc1nc(-c2ccc(Cl)c(Cl)c2)c(C2CCCC2)s1)Cc1ccccc1 (stereo not shown) [I-177] | ≤ 1
13 | O=C(O)CCN(CCc1ccccc1)c1nc(-c2ccc(Cl)c(Cl)c2)c(C2CC2)s1 [I-57] | ≤ 1
14 | COCc1sc(N(CCC(=O)O)Cc2ccccc2)nc1-c1ccc(Cl)c(Cl)c1 [I-120, 3-(benzyl(4-(3,4-dichlorophenyl)-5-(methoxymethyl)thiazol-2-yl)amino)propanoic acid] | 1 to 10
15 | CC(C)Cc1sc(N(CCC(=O)O)CC2CCCCC2)nc1-c1ccc(Cl)c(Cl)c1 [I-87] | ≤ 1
16 | CC(C)Cc1sc(N(CCC(=O)O)Cc2ccccc2)nc1-c1ccc2[nH]ccc2c1 [I-85, 3-((4-(1H-indol-5-yl)-5-isobutylthiazol-2-yl)(benzyl)amino)propanoic acid] | 1 to 10
17 | CC(C)c1sc(NCC(Cc2c[nH]c3ccccc23)C(=O)O)nc1-c1ccc(Cl)cc1 (stereo not shown) [I-45] | 1 to 10
18 | O=C(O)C(CNc1nc(-c2ccc(Cl)c(Cl)c2)c(C2CC2)s1)Cc1ccc2[nH]ccc2c1 (stereo not shown) [I-17] | ≤ 1
19 | CC(C)c1sc(Nc2ncc(-c3ccccc3)cc2C(=O)O)nc1-c1ccc(Cl)c(C(F)(F)F)c1 [I-262, 2-(4-(4-chloro-3-(trifluoromethyl)phenyl)-5-isopropylthiazol-2-ylamino)-5-phenylnicotinic acid] | ≤ 1
20 | COc1ccc(-c2nc(Nc3ncc(-c4cccs4)cc3C(=O)O)sc2CC(C)C)cc1 [I-333] | ≤ 1
21 | CC(C)Cc1sc(N(CCC(=O)NS(=O)(=O)CCN)Cc2ccccc2)nc1-c1ccc(Cl)c(Cl)c1 [I-198] | > 10
22 | CN(C)Cc1sc(N(CCC(=O)O)Cc2ccccc2)nc1-c1ccc(Cl)c(Cl)c1 [I-89, 3-(benzyl(4-(3,4-dichlorophenyl)-5-((dimethylamino)methyl)thiazol-2-yl)amino)propanoic acid] | > 10
23 | O=C(O)C(CNc1nc(-c2ccc(Cl)c(Cl)c2)c(C2CC2)s1)Cc1cccc(O)c1 (stereo not shown) [I-13] | 1 to 10
24 | CC(C)Cc1sc(N(CCCN(C)C)CCC(=O)O)nc1-c1ccc(Cl)c(Cl)c1 [I-71] | > 10
25 | CC(C)c1sc(NCC(Cc2cccc3[nH]ccc23)C(=O)O)nc1-c1ccc(Cl)cc1 (stereo not shown) [I-44] | 1 to 10

The remaining lines, values ahead:

Row | IC50 [µM] | Compound
26 | ≤ 1 | CC(C)Cc1sc(Nc2cccc(C(F)(F)F)c2C(=O)O)nc1-c1ccc(Cl)c(Cl)c1 [I-236]
27 | 1 to 10 | CC(C)Cc1sc(NCC(Cc2ccccn2)C(=O)O)nc1-c1ccc(Cl)c(Cl)c1 (stereo not shown) [I-158]
28 | ≤ 1 | CC(C)Cc1sc(NCC(CCc2ccccc2)C(=O)O)nc1-c1ccc(Cl)c(Cl)c1 (stereo not shown) [I-23]
29 | > 10 | CC(C)Cc1sc(Nc2ccc(N3CCOCC3)c(C(=O)O)c2)nc1-c1ccc(Cl)c(Cl)c1 [I-211]
30 | 1 to 10 | CC(C)Cc1sc(Nc2cc(C(=O)O)ccn2)nc1-c1ccc(Cl)c(Cl)c1 [I-222]
31 | 1 to 10 | CC(C)Cc1sc(N2CCN(C(=O)c3cccnc3)C(C(=O)O)C2)nc1-c1ccc(Cl)c(Cl)c1 (stereo not shown) [I-250]
32 | ≤ 1 | COc1cccc(-c2cnc(Nc3nc(-c4ccc(Cl)c(Cl)c4)c(C(C)C)s3)c(C(=O)O)c2)c1 [I-267]
33 | 1 to 10 | CC(C)Cc1sc(-c2cc(C(=O)O)ccn2)nc1-c1ccc(Cl)c(Cl)c1 [I-238]
34 | 1 to 10 | COc1cc(CC(CNc2nc(-c3ccc(Cl)c(Cl)c3)c(CC(C)C)s2)C(=O)O)ccn1 (stereo not shown) [I-165]
35 | ≤ 1 | CC(C)Cc1sc(N(CCC(=O)O)Cc2cccc(Cl)c2)nc1-c1ccc(Cl)c(Cl)c1 [I-107]
36 | ≤ 1 | CC(C)c1sc(Nc2ncc(Cc3ccccc3)cc2C(=O)O)nc1-c1ccc(Cl)c(Cl)c1 [I-264]
37 | 1 to 10 | CC(C)Cc1sc(N2CCN(c3ccccc3)C(C(=O)O)C2)nc1-c1ccc(Cl)c(Cl)c1 (stereo not shown) [I-170]
38 | ≤ 1 | COc1ccnc(Nc2nc(-c3ccc(Cl)c(Cl)c3)c(CC(C)C)s2)c1C(=O)O [I-243]
39 | 1 to 10 | CC(C)Cc1sc(Nc2ccc(O)c(C(=O)O)c2)nc1-c1ccc(Cl)c(Cl)c1 [I-207, 5-(4-(3,4-dichlorophenyl)-5-isobutylthiazol-2-ylamino)-2-hydroxybenzoic acid]
40 | 1 to 10 | CC(C)Cc1sc(N(CCC(=O)O)Cc2cccc3[nH]ccc23)nc1-c1ccc(Cl)c(Cl)c1 [I-53, 3-(((1H-indol-4-yl)methyl)(4-(3,4-dichlorophenyl)-5-isobutylthiazol-2-yl)amino)propanoic acid]
41 | ≤ 1 | CC(C)Cc1sc(Nc2cc(-c3cccc(Cl)c3)sc2C(=O)O)nc1-c1ccc(Cl)c(Cl)c1 [I-272]
42 | 1 to 10 | CC(C)Cc1sc(N(CCC(=O)O)Cc2ccccc2O)nc1-c1ccc(Cl)c(Cl)c1 [I-50]
43 | ≤ 1 | CC(C)Cc1sc(Nc2ncc(-c3cccs3)cc2C(=O)O)nc1-c1ccc(OCCO)c(Cl)c1 [I-331]
44 | 1 to 10 | CC(C)Cc1sc(Nc2ccccc2C(=O)O)nc1-c1ccc(Cl)c(Cl)c1 [I-141, 2-(4-(3,4-dichlorophenyl)-5-isobutylthiazol-2-ylamino)benzoic acid]
45 | > 10 | CC(C)Cc1sc(N(CC(=N)N)Cc2ccccc2)nc1-c1ccc(Cl)c(Cl)c1 [I-231, 2-(benzyl(4-(3,4-dichlorophenyl)-5-isobutylthiazol-2-yl)amino)acetimidamide]
46 | ≤ 1 | CC(C)Cc1sc(Nc2nccc(-c3ccccc3)c2C(=O)O)nc1-c1ccc(Cl)c(Cl)c1 [I-241]
47 | > 10 | CC(C)Cc1sc(NCC(Cc2ccc(N)nc2)C(=O)O)nc1-c1ccc(Cl)c(Cl)c1 (stereo not shown) [I-153]
48 | > 10 | CC(C)Cc1sc(NCC(C(=O)O)N(C)C)nc1-c1ccc(Cl)c(Cl)c1 (stereo not shown) [I-116, 3-(4-(3,4-dichlorophenyl)-5-isobutylthiazol-2-ylamino)-2-(dimethylamino)propanoic acid]
49 | 1 to 10 | CC(C)Cc1sc(N(CCC(=O)O)CC2CCCO2)nc1-c1ccc(Cl)c(Cl)c1 (stereo not shown) [I-69]
50 | 1 to 10 | CC(C)c1sc(NCC(Cc2cccc(F)c2)C(=O)O)nc1-c1ccc(Cl)c(Cl)c1 (stereo not shown) [I-5]
51 | 1 to 10 | CC(C)Cc1sc(N(CCC(=O)O)Cc2ccc[nH]2)nc1-c1ccc(Cl)c(Cl)c1 [I-110]
52 | > 10 | COC(=O)c1ccc(Nc2nc(-c3ccc(Cl)c(Cl)c3)c(CC(C)C)s2)o1 [I-288]
53 | 1 to 10 | CC(C)Cc1sc(NCC(Cc2ccc(N(C)C)nc2)C(=O)O)nc1-c1ccc(Cl)c(Cl)c1 (stereo not shown) [I-154]
54 | 1 to 10 | Cc1cc(CC(CNc2nc(-c3ccc(Cl)c(Cl)c3)c(CC(C)C)s2)C(=O)O)ccn1 (stereo not shown) [I-151]
55 | ≤ 1 | CC(C)Cc1sc(Nc2ncc(C(F)(F)F)cc2C(=O)O)nc1-c1ccc2ccccc2c1 [I-321]
